This is an account of results in PMC1851987, “Identification of the Endogenous Key Substrates of the Human Organic Cation Transporter OCT2 and Their Implication in Function of Dopaminergic Neurons” (PLoS ONE, 2007).

Numbering of substitutions follows the chain as printed. pEC50: −log10 of the molar value.

One series has as its target T1, OCT2 variant K432Q (Homo sapiens, UniProt O15244, K432Q/S270A).
T1 sequence (O15244 1-555 S270A/K432Q): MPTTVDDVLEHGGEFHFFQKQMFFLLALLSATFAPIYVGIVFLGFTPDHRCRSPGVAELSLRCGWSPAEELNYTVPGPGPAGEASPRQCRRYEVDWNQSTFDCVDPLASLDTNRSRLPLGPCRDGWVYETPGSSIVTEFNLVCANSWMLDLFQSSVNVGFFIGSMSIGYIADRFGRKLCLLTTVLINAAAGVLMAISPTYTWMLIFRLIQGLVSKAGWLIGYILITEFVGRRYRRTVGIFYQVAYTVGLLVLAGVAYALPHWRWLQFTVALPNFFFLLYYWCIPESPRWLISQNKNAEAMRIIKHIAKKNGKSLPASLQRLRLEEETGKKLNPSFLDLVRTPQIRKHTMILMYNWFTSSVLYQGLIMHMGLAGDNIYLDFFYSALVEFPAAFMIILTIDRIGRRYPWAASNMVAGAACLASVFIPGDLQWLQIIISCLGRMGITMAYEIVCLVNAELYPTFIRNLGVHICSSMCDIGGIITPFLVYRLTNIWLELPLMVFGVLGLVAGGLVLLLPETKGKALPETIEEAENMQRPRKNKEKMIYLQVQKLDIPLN
Nature of the series: Specific uptake into HEK-293 cells transfected with OCT2 variant K432Q. The method, then:
(§1) The cDNAs encoding the organic cation transporters OCT1 (GenBank accession no. NM_003057), OCT2 (NM_003058), and EMT (NM_021977) were amplified by RT-PCR from human liver, kidney, and placenta total RNA respectively, and subcloned into the eukaryotic expression vector pcDNA3. The cDNA encoding the norepinephrine transporter (SLC6A2) was kindly provided by C. Pifl (University of Vienna).
(§2) For uptake experiments, cells were grown on polystyrene dishes of 60 mm diameter to at least 80% confluence. […] Cells were lysed with 1 ml of 4 mmol/l perchloric acid and lysates subjected to LC-MS-MS quantification. Cellular protein content was determined after solubilization of perchloric acid precipitates with 1 ml of […] NaOH using the bicinchoninic assay (BCA Protein Assay Kit, Pierce).
(§3) Chromatographic separations were performed on Hypercarb (5 µm, 50×2.1 mm; Thermo Electron), Aquasil C18 (3 µm, 100×4.6 mm; Thermo Electron), or Hilic columns (5 µm, 100×3.0 mm; Waters Atlantis) by isocratic or gradient elution using 0.1% aqueous formic acid (A) and acetonitrile or methanol (B) as solvent system. For quantification, SRM transitions of a precursor ion [M+H]^+ into a specific fragment ion (peak area ratios relative to IS) were recorded in positive ESI mode at 1.0–1.5 mTorr collision pressure and 10–40 eV collision energy. […]

The next series addresses T2, OCT2 variant A270S (Homo sapiens, UniProt O15244).
T2 sequence (O15244 1-555): T1 sequence (O15244 1-555 S270A/K432Q) with A270S, Q432K
The series is described as follows: Specific uptake into HEK-293 cells transfected with OCT2 variant A270S. The method, then:
as §1, §2, §3

The subject of the next series is HTZ-146 cells. Nature of the series: MTT reduction cell viability assay, HTZ-146 cells. The series is classed as cell-based, human. As to the method: Cell viability was assessed in HEK-293 cells, human dopaminergic neuroblastoma cells (SH-SY5Y) and human glioblastoma cells (HTZ-146) by the MTT test as described.[22] […] For indication of metabolic activity, cells were treated with MTT reagent (15 µl of 1 mg/ml stock solution per well) for 1 h, and after drying of culture plates for 1 h at 37°C, the resulting formazan dye was extracted with isopropanol/HCl (100 µl 0.04 mol/l per well) and absorbance was determined spectrophotometrically at 568 nm. Results were in agreement with the data obtained by the tryptan blue exclusion method (data not shown).

The mark [1] stands for this setting: incubation with 10 µmol/l, mean (s.e.m.).

As for `O=C1NC(Cc2c[nH]cn2)C(=O)N2CCCC12` (stereo not drawn) [cyclo(his-pro), histidyl-proline diketopiperazine], the Clin on OCT2 variant K432Q (setting [1]) is on record as 26.0 (4.3) µl/mg/min; on OCT2 variant A270S (setting [1]), 25.5 (3.3) µl/mg/min. In addition, in the series with HTZ-146 cells (pre-treated 1 h with 10 µmol/l cyclo(his-pro)), the “effect on glutamate-induced cytotoxicity” value is reported as “prevented”.
What is called Km is the substrate concentration at which the rate is half of its maximum. The pEC50 is the EC50 on a negative log10 scale, so that one unit is a factor of ten. As to `CC1NCCc2cc(O)c(O)cc21` (stereo not drawn) [salsolinol], the Km at 1 min was determined as 129 µM at OCT2 variant K432Q (human, pH 7.4) and 132 µM at OCT2 variant A270S (human, pH 7.4). The pEC50 in the series on HTZ-146 cells (Homo sapiens, 48 h, non-pretreated, read-out: EC50 (95% confidence interval), cell viability) was 3.86.
